Assay results from patent US20120245104A1, “NOVEL RETRO-INVERSO LEPTIN PEPTIDE ANTAGONISTS” (priority 2011, published 2012).
Where a SMILES comes first, the peptide text is derived from it. Where no end group is shown, it is not given here. [ ]: non-standard residue; d: D form.

These compounds were tested on MCF-7 cells. Details: not given.
Format: cell-based
Source text: These peptides were compared to full length LPA-1 with respect to their abilities to inhibit leptin-induced cell growth. […] The same approach was employed with LPA-2 creating […] of the leptin molecule). […] Another LPA-2 scrambled peptide that may be used is […] NO: 3]. […] Retro-inverso peptides are peptides constructed with the reverse sequence and containing all D-amino acids. […] Retro-inverso LPA-1(24-6) sequence […] NO: 31] and retro-inverso LPA-2(89-72) […] NO: 32]. […] Studies were carried out using both MCF-7 and HT-29 cells. […] MCF-7 and HT-29 cells were cultured in DMEM-F12 medium containing 5% fetal bovine serum (FBS), 5 μg/ml insulin, 1% amphopthericin B, 100 μg/ml streptomycin and 100 U/ml penicillin until they were 80% confluent. The cells were washed twice with 100 mM phosphate saline buffer (PBS), pH 7.2 and cultured for additional 2 days in the same medium but without FBS (basal medium). Cells were washed as described before and cultured in basal medium containing the leptin peptides of the present invention or controls as described above.

Row | Compound | IC50 [nM]
1 | NVIQISNILENLRDLLHV-NH2 | 16
2 | CC[C@@H](C)[C@@H](N)C(=O)N[C@H](CC(=O)O)C(=O)N[C@H](CC(N)=O)C(=O)N[C@@H](C(=O)N[C@H](CCCNC(=N)N)C(=O)N[C@@H](C(=O)N[C@@H](C(=O)N[C@@H](C(=O)N[C@@H](C(=O)N[C@H](CCCCN)C(=O)N[C@@H](C(=O)N[C@H](CC(C)C)C(=O)N[C@@H](C(=O)N[C@H](CCCCN)C(=O)N[C@H](CC(C)C)C(=O)N[C@H](CC(=O)O)C(=O)N[C@H](CC(=O)O)C(=O)N[C@H](CCC(N)=O)C(=O)N[C@@H](C(N)=O)C(C)C)[C@H](C)O)[C@H](C)CC)[C@H](C)O)[C@H](C)CC)C(C)C)[C@H](C)O)[C@H](C)CC [D-L10] (H-[dI][dD][dN][dI][dR][dT][dV][dI][dT][dK][dI][dL][dT][dK][dL][dD][dD][dQ][dV]-NH2) | 11.8
3 | NVIQISNLLENLRDLLHV-NH2 | 16
4 | NVIQISNVLENLRDLLHV-NH2 | 15.6
5 | VQDDIKTLIKTIVTRINDI-NH2 | 21
6 | VQDDAKTLIKTIVTRINDI-NH2 | 88
7 | CC[C@@H](C)[C@@H](NC(=O)[C@@H](CO)NC(=O)[C@@H](CC(N)=O)NC(=O)[C@H](NC(=O)[C@@H](CC(C)C)NC(=O)[C@@H](CCC(=O)O)NC(=O)[C@@H](CC(N)=O)NC(=O)[C@@H](CC(C)C)NC(=O)[C@@H](CCCNC(=N)N)NC(=O)[C@@H](CC(=O)O)NC(=O)[C@@H](CC(C)C)NC(=O)[C@@H](CC(C)C)NC(=O)[C@@H](Cc1c[nH]cn1)NC(=O)[C@H](N)C(C)C)C(C)C)C(=O)N[C@H](CCC(N)=O)C(=O)N[C@@H](C(=O)N[C@@H](C(=O)N[C@H](CC(N)=O)C(N)=O)C(C)C)[C@H](C)CC [D-V79] (H-[dV][dH][dL][dL][dD][dR][dL][dN][dE][dL][dV][dN][dS][dI][dQ][dI][dV][dN]-NH2) | 13.6
8 | CC[C@@H](C)[C@@H](N)C(=O)N[C@H](CC(=O)O)C(=O)N[C@H](CC(N)=O)C(=O)N[C@@H](C(=O)N[C@H](CCCNC(=N)N)C(=O)N[C@@H](C(=O)N[C@@H](C(=O)N[C@@H](C(=O)N[C@@H](C(=O)N[C@H](CCCCN)C(=O)N[C@@H](C(=O)N[C@H](CC(C)C)C(=O)N[C@@H](C(=O)N[C@H](CCCCN)C(=O)N[C@@H](C(=O)N[C@H](CC(=O)O)C(=O)N[C@H](CC(=O)O)C(=O)N[C@H](CCC(N)=O)C(=O)N[C@@H](C(N)=O)C(C)C)[C@H](C)O)[C@H](C)O)[C@H](C)CC)[C@H](C)O)[C@H](C)CC)C(C)C)[C@H](C)O)[C@H](C)CC [D-T10(1), IDNIRTVITKILTKTDDQV] (H-[dI][dD][dN][dI][dR][dT][dV][dI][dT][dK][dI][dL][dT][dK][dT][dD][dD][dQ][dV]-NH2) | 16.9
9 | CC[C@@H](C)[C@@H](N)C(=O)N[C@H](CC(=O)O)C(=O)N[C@H](CC(N)=O)C(=O)N[C@@H](C(=O)N[C@H](CCCNC(=N)N)C(=O)N[C@@H](C(=O)N[C@@H](C(=O)N[C@@H](C(=O)N[C@@H](C(=O)N[C@H](CCCCN)C(=O)N[C@@H](C(=O)N[C@H](CC(C)C)C(=O)N[C@@H](C(=O)N[C@H](CCCCN)C(=O)N[C@@H](C(=O)N[C@H](CC(=O)O)C(=O)N[C@H](CC(=O)O)C(=O)N[C@H](CCC(N)=O)C(=O)N[C@@H](C(N)=O)C(C)C)[C@H](C)CC)[C@H](C)O)[C@H](C)CC)[C@H](C)O)[C@H](C)CC)C(C)C)[C@H](C)O)[C@H](C)CC [D-I10] (H-[dI][dD][dN][dI][dR][dT][dV][dI][dT][dK][dI][dL][dT][dK][dI][dD][dD][dQ][dV]-NH2) | 17.6
10 | VQDDVKTLIKTIVTRINDI-NH2 | 20.7
11 | CC[C@@H](C)[C@@H](NC(=O)[C@@H](CO)NC(=O)[C@@H](CC(N)=O)NC(=O)[C@@H](CC(C)C)NC(=O)[C@@H](CC(C)C)NC(=O)[C@@H](CCC(=O)O)NC(=O)[C@@H](CC(N)=O)NC(=O)[C@@H](CC(C)C)NC(=O)[C@@H](CCCNC(=N)N)NC(=O)[C@@H](CC(=O)O)NC(=O)[C@@H](CC(C)C)NC(=O)[C@@H](CC(C)C)NC(=O)[C@@H](Cc1c[nH]cn1)NC(=O)[C@H](N)C(C)C)C(=O)N[C@H](CCC(N)=O)C(=O)N[C@@H](C(=O)N[C@@H](C(=O)N[C@H](CC(N)=O)C(N)=O)C(C)C)[C@H](C)CC [D-L79] (H-[dV][dH][dL][dL][dD][dR][dL][dN][dE][dL][dL][dN][dS][dI][dQ][dI][dV][dN]-NH2) | 18.7
12 | CC[C@@H](C)[C@@H](NC(=O)[C@@H](CO)NC(=O)[C@@H](CC(N)=O)NC(=O)[C@@H](CC(=O)O)NC(=O)[C@@H](CC(C)C)NC(=O)[C@@H](CCC(=O)O)NC(=O)[C@@H](CC(N)=O)NC(=O)[C@@H](CC(C)C)NC(=O)[C@@H](CCCNC(=N)N)NC(=O)[C@@H](CC(=O)O)NC(=O)[C@@H](CC(C)C)NC(=O)[C@@H](CC(C)C)NC(=O)[C@@H](Cc1c[nH]cn1)NC(=O)[C@H](N)C(C)C)C(=O)N[C@H](CCC(N)=O)C(=O)N[C@@H](C(=O)N[C@@H](C(=O)N[C@H](CC(N)=O)C(N)=O)C(C)C)[C@H](C)CC [D-D79(1), VHLLDRLNELDNSIQIVN] (H-[dV][dH][dL][dL][dD][dR][dL][dN][dE][dL][dD][dN][dS][dI][dQ][dI][dV][dN]-NH2) | 19.4
13 | NVIQISNALENLRDLLHV-NH2 | 54
14 | CC[C@@H](C)[C@@H](NC(=O)[C@@H](CC(C)C)NC(=O)[C@@H](CCC(=O)O)NC(=O)[C@@H](CC(N)=O)NC(=O)[C@@H](CC(C)C)NC(=O)[C@@H](CCCNC(=N)N)NC(=O)[C@@H](CC(=O)O)NC(=O)[C@@H](CC(C)C)NC(=O)[C@@H](CC(C)C)NC(=O)[C@@H](Cc1c[nH]cn1)NC(=O)[C@H](N)C(C)C)C(=O)N[C@H](CC(N)=O)C(=O)N[C@H](CO)C(=O)N[C@@H](C(=O)N[C@H](CCC(N)=O)C(=O)N[C@@H](C(=O)N[C@@H](C(=O)N[C@H](CC(N)=O)C(N)=O)C(C)C)[C@H](C)CC)[C@H](C)CC [D-I79] (H-[dV][dH][dL][dL][dD][dR][dL][dN][dE][dL][dI][dN][dS][dI][dQ][dI][dV][dN]-NH2) | 9.7
15 | VQDDTKTLIKTIVTRINDI-NH2 [T10 (original amino acid)] | 25.7
16 | NVIQISNDLENLRDLLHV-NH2 [D79 (original amino acid)] | 32
17 | CC[C@@H](C)[C@@H](N)C(=O)N[C@H](CC(=O)O)C(=O)N[C@H](CC(N)=O)C(=O)N[C@@H](C(=O)N[C@H](CCCNC(=N)N)C(=O)N[C@@H](C(=O)N[C@@H](C(=O)N[C@@H](C(=O)N[C@@H](C(=O)N[C@H](CCCCN)C(=O)N[C@@H](C(=O)N[C@H](CC(C)C)C(=O)N[C@@H](C(=O)N[C@H](CCCCN)C(=O)N[C@@H](C(=O)N[C@H](CC(=O)O)C(=O)N[C@H](CC(=O)O)C(=O)N[C@H](CCC(N)=O)C(=O)N[C@@H](C(N)=O)C(C)C)C(C)C)[C@H](C)O)[C@H](C)CC)[C@H](C)O)[C@H](C)CC)C(C)C)[C@H](C)O)[C@H](C)CC [D-V10] (H-[dI][dD][dN][dI][dR][dT][dV][dI][dT][dK][dI][dL][dT][dK][dV][dD][dD][dQ][dV]-NH2) | 17.4

Same assay, conditions: Table 1; L-amino acid peptides; cell line not named in Table 1 (same values in Table 2 are for MCF-7); read-out: IC50 values

Row | Compound | IC50 [nM]
18 | SRNVIQISNDLENLRDLLHVLAFSKS-NH2 [Full-length LPA-2 (70-95), reference compound] | 33
19 | IQKVQDDTKTLIKTIVTRINDISHTQSVSSKQ-NH2 [Full-length LPA-1 (3-34), reference compound] | 39.1

Same assay, conditions: Table 2; MCF-7 cells; read-out: IC50 values

Row | Compound | IC50 [nM]
20 | SRNVIQISNDLENLRDLLHVLAFSKS-NH2 [Full-length LPA-2 (70-95), reference compound] | 33
21 | IQKVQDDTKTLIKTIVTRINDISHTQSVSSKQ-NH2 [Full-length LPA-1 (3-34), reference compound] | 39.1
